In data set [1] the target is T1, Steroid 17-alpha-hydroxylase/17,20 lyase (Homo sapiens, UniProt P05093).
T1 sequence (P05093 whole entry): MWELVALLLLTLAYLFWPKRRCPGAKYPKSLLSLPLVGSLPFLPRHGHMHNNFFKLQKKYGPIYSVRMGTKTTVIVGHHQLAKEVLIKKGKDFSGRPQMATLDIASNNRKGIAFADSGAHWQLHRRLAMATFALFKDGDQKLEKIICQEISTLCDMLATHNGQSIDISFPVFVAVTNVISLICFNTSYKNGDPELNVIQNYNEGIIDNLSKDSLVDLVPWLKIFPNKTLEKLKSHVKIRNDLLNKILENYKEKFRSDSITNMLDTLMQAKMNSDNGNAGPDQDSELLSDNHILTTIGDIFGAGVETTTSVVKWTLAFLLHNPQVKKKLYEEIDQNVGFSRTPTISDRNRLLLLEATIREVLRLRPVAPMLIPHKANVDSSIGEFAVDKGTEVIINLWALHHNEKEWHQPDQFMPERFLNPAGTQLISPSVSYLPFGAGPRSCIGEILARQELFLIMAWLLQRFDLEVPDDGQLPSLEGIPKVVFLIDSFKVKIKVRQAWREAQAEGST
Put plainly: Binding affinity to C-terminal 6-His-tagged human CYP17A1 expressed in Escherichia coli assessed as induction of spectral changes by measuring rate constant of first reaction at 20 uM using 2 uM CYP17A1 by spectroscopy.

Data set [2] addresses T1, Steroid 17-alpha-hydroxylase/17,20 lyase. Kind of data set: Binding affinity to C-terminal 6-His-tagged human CYP17A1 expressed in Escherichia coli assessed as induction of type II binding spectral changes at 50 uM using 1 uM CYP17A1 by spectroscopy.
Data set [3] has the same target. Put plainly: Binding affinity to C-terminal 6-His-tagged human CYP17A1 expressed in Escherichia coli assessed as induction of spectral changes by measuring rate constant of second reaction at 20 uM using 2 uM CYP17A1 by spectroscopy.

Consider `CC(C)[C@](O)(c1ccc2cc(OC(F)F)c(OC(F)F)cc2c1)c1c[nH]nn1` [SEVITERONEL], for which the K in data set [1] was 44 to 45 s⁻¹; in data set [3], 1.9 s⁻¹. Moreover, in data set [2], the outcome was Active.

Source of the values: ChEMBL document CHEMBL4602701 (J Med Chem, 2020).
